Laboratory results from paper PMC7321161, “The Intriguing Effects of Substituents in the N-Phenethyl Moiety of Norhydromorphone: A Bifunctional Opioid from a Set of “Tail Wags Dog” Experiments” (Molecules, 2020).
Where “and” joins values, the source holds several entries; their conditions need not be identical. Equal values may be shown once.

What was measured:
μ-opioid receptor (MOR) = target: T1, μ-opioid receptor (MOR) (Rattus norvegicus, UniProt P33535); test: Opioid receptor binding, μ sites ([3H]DAMGO), rat brain homogenate
T1 construct: Frozen whole rat brains excluding cerebellum were thawed on ice; from tissue; host or cells: whole rat brain excluding cerebellum, membrane homogenate
T1 sequence (P33535 whole entry): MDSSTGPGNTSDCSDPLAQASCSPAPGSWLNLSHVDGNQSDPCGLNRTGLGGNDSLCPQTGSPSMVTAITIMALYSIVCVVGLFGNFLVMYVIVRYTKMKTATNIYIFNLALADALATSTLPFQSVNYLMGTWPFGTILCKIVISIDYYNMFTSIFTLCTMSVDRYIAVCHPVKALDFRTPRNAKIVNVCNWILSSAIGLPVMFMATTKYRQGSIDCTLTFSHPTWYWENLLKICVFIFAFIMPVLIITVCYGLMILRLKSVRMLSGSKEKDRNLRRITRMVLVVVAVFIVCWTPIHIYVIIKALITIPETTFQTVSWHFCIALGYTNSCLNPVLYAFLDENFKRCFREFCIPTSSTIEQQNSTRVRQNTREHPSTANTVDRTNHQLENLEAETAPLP

δ-opioid receptor (DOR) = target: T2, δ-opioid receptor (DOR) (Rattus norvegicus, UniProt P33533); test: Opioid receptor binding, δ sites ([3H]DADLE), rat brain homogenate
T2 construct: Frozen whole rat brains excluding cerebellum were thawed on ice; from tissue; host or cells: whole rat brain excluding cerebellum, membrane homogenate
T2 sequence (P33533 whole entry): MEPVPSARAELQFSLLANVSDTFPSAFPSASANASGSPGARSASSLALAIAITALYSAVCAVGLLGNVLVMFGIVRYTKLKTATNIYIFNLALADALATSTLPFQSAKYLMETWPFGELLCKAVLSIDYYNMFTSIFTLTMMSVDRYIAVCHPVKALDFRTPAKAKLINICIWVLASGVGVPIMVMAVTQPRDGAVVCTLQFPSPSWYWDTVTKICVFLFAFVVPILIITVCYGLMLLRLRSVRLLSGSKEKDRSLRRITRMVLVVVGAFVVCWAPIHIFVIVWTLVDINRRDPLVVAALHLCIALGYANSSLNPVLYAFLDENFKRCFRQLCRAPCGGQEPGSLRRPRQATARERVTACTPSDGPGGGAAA

κ-opioid receptor (KOR) = target: T3, κ-opioid receptor (KOR) (Rattus norvegicus, UniProt P34975); test: Opioid receptor binding, κ sites ([3H]U69,593), rat brain homogenate; details: for Ki: KOR Binding (Ki), whole rat brain excluding cerebellum, [3H]U69,593, Ki ± SEM; for KOR Binding, exploratory binding assay: radioligand displacement at 100 nM
T3 construct: Frozen whole rat brains excluding cerebellum were thawed on ice; from tissue; host or cells: whole rat brain excluding cerebellum, membrane homogenate
T3 sequence (P34975 whole entry): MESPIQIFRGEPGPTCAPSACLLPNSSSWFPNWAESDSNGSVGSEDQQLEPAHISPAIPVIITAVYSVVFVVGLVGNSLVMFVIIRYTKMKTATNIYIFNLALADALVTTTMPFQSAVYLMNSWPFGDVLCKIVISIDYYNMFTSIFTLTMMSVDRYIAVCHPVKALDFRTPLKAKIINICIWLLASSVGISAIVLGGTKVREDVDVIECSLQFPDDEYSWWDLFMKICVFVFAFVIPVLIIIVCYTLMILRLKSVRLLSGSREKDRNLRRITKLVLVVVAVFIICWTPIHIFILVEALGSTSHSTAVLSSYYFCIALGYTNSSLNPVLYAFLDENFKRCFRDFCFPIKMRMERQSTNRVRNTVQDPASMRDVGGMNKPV

rat MOR = target: T4, rat MOR (Rattus norvegicus, UniProt P33535); test: Stimulation of [35S]GTPγS binding, C6 glioma cell membranes expressing MOR; assay type: biochemical; details: for MOR activity type in the [35S]GTPγS assay: antagonist activity assumed from high MOR affinity and lack of stimulation; for MOR % Stimulation, [35S]GTPγS: compared to standard maximal DAMGO; for MOR EC50, [35S]GTPγS: C6 cells expressing MOR, mean ± SEM, DNS = no stimulation
T4 construct: expressed in transfected cells; host or cells: C6 rat glioma cells, stably transfected; membranes
T4 sequence (P33535 whole entry): as the sequence (P33535 whole entry) above

rat DOR = target: T5, rat DOR (Rattus norvegicus, UniProt P33533); test: Stimulation of [35S]GTPγS binding, C6 glioma cell membranes expressing DOR; assay type: biochemical; details: for EC50: DOR EC50, [35S]GTPγS, C6 cells expressing DOR, mean ± SEM; for DOR % Stimulation, [35S]GTPγS: compared to standard maximal DPDPE
T5 construct: expressed in transfected cells; host or cells: C6 rat glioma cells, stably transfected; membranes
T5 sequence (P33533 whole entry): as the sequence (P33533 whole entry) above

[1] = target: T6, human μ-opioid receptor (OPRM1) (Homo sapiens, UniProt P35372); test: cell-based; details: for EC50: MOR cAMP Agonist Potency ± SEM; for Emax: OPRM1, read-out: MOR cAMP % Efficacy
T6 construct: host or cells: HitHunter CHO-K1 cells
T6 sequence (P35372 whole entry): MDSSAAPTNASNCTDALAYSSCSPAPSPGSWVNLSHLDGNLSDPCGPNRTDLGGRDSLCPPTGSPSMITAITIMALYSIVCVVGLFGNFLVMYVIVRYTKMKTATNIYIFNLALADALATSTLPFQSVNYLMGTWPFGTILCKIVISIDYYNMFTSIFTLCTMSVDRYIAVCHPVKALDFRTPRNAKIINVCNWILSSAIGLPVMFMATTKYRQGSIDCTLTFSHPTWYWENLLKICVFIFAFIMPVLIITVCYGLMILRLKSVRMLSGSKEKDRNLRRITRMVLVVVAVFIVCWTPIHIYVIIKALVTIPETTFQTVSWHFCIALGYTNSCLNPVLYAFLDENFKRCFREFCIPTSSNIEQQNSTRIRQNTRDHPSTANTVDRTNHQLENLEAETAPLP

[2] = target: T7, human δ-receptor (OPRMD1) (Homo sapiens, UniProt P41143); test: cell-based; assay type: cell-based; details: for Emax: CHO-K1, read-out: DOR cAMP % Efficacy; for EC50: DOR cAMP Agonist Potency ± SEM
T7 construct: host or cells: HitHunter CHO-K1 cells
T7 sequence (P41143 whole entry): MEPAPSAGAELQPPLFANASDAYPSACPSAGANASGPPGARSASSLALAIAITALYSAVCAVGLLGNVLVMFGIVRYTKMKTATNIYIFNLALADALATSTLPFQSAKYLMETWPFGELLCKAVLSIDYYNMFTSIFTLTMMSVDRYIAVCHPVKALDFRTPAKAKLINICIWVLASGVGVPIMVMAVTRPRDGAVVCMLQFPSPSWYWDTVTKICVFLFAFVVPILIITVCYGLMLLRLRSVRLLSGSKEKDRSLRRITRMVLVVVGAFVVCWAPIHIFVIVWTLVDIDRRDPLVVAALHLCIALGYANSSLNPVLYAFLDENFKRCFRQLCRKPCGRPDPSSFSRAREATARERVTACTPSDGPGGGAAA

[3] = target: T8, human κ-opioid receptor (OPRK1) (Homo sapiens, UniProt P41145); test: cell-based; details: for Emax: CHO-K1, read-out: KOR cAMP % Efficacy; for EC50: KOR cAMP Agonist Potency ± SEM
T8 construct: host or cells: HitHunter CHO-K1 cells
T8 sequence (P41145 whole entry): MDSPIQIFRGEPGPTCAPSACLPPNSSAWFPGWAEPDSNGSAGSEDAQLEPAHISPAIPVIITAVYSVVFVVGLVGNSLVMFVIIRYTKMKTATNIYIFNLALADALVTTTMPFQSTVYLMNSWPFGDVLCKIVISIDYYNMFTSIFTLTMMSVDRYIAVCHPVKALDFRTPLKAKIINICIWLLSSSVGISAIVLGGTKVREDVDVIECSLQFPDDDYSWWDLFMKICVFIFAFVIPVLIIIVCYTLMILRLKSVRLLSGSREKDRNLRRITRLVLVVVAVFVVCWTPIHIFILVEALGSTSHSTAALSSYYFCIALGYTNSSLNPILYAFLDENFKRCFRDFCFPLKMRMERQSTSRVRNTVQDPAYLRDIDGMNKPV

[4] = target: T9, human μ-opioid receptor β-arrestin-2 (Homo sapiens, UniProt P35372); test: cell-based; details: for Emax: read-out: MOR Mediated β-arrestin Recruitment (% Control, Emax DAMGO)
T9 construct: enzyme fragment for EFC (β-galactosidase ProLink fragment, by own knowledge of the PathHunter system); host or cells: PathHunter CHO cells
T9 sequence (P35372 whole entry, the tested form may be a part): as the sequence (P35372 whole entry) above

human KOR = target: T10, human KOR (Homo sapiens, UniProt P41145); test: Stimulation of [35S]GTPγS binding, CHO cell membranes expressing KOR; assay type: biochemical; details: for KOR % Stimulation, [35S]GTPγS: compared to standard maximal U69593
T10 construct: expressed in transfected cells; membranes
T10 sequence (P41145 whole entry): as the sequence (P41145 whole entry) above

SMILES	Ki (μ-opioid receptor (MOR)) [nM]	Ki (δ-opioid receptor (DOR)) [nM]	Ki (κ-opioid receptor (KOR)) [nM]	EC50 (rat MOR) [nM]	MOR activity type in the [35S]GTPγS assay (rat MOR)	MOR % Stimulation, [35S]GTPγS (rat MOR)	EC50 (rat DOR)	DOR % Stimulation, [35S]GTPγS (rat DOR)	EC50 [1]	Emax [1] [%]	Emax [2] [%]	EC50 [2]	Emax [3] [%]	EC50 [3]	Bias Factor [4]	EC50 [4] [nM]	Emax [4] [%]	further results
O=C1CCC2C3Cc4ccc(O)c5c4[C@@]2(CCN3CCc2ccc([N+](=O)[O-])cc2)[C@H]1O5 (stereo partly drawn) [Compound 2a, (7aR,12bS)-9-Hydroxy-3-(4-nitrophenethyl)-2,3,4,4a,5,6-hexahydro-1H-4,12-methanobenzofuro[3,2-e]-isoquinolin-7(7aH)-one]	0.52 ± 0.01	6.07 ± 0.86	56 ± 8.2	1.9 ± 0.5	potent MOR agonist	26.6 ± 1.4%	227 ± 53 nM	64.3 ± 3.3%	0.05 nM	102	96	0.53 nM	63	74.6 nM	4.51	6.38	26.2	–
O=C1CCC2C3Cc4ccc(O)c5c4[C@@]2(CCN3CC=Cc2ccccc2)[C@H]1O5 (stereo partly drawn) [Compound 1c, (7aR,12bS)-3-Cinnamyl-9-hydroxy-2,3,4,4a,5,6-hexahydro-1H-4,12-methanobenzofuro[3,2-e]isoquinolin-7(7aH)-one]	90.5 ± 11	–	–	–	–	–	–	–	76.7 nM	103	96.5	1700 nM	–	> 10000 nM	1.35	584	4.1	DOR Binding, exploratory binding assay (δ-opioid receptor (DOR); radioligand displacement at 100 nM): NT (NT = not tested—inactive (<50% activity at 100 nM concentration in exploratory binding assays (displaced less than half of radioligand)); KOR Binding, exploratory binding assay (κ-opioid receptor (KOR)): NT (NT = not tested—inactive (<50% activity at 100 nM concentration in exploratory binding assays (displaced less than half of radioligand))
N#CCN1CC[C@]23c4c5ccc(O)c4O[C@H]2C(=O)CCC3C1C5 (stereo partly drawn) [Compound 1a, 2-((7aR,12bS)-9-Hydroxy-7-oxo-1,2,4,4a,5,6,7,7a-octahydro-3H-4,12-methanobenzofuro[3,2-e]isoquinolin-3-yl)acetonitrile]	4.51 ± 0.27	141 ± 2.8	90.3 ± 6.6	425 ± 133	–	47% and 47.1 ± 3.3%	–	–	4.16 nM	102	77	254 nM	99.3	109 nM	2.18	424	33.4	–
Cc1ccc(CCN2CC[C@]34c5c6ccc(O)c5O[C@H]3C(=O)CCC4C2C6)cc1 (stereo partly drawn) [Compound 2c, (7aR,12bS)-9-Hydroxy-3-(4-methylphenethyl)-2,3,4,4a,5,6-hexahydro-1H-4,12-methanobenzofuro[3,2-e]-isoquinolin-7(7aH)-one]	0.86 ± 0.12	6.34 ± 0.65	44 ± 3.8	1.9 ± 0.7	potent partial MOR agonist	55.6 ± 2.1%	23.1 ± 6.9 nM	95% and 95.4 ± 3.8%	0.08 nM	102	95	1 nM	99.4	8.7 nM and 8.71 nM	1.12	5.6	46.5	EC50 (human KOR): 38.1 ± 10.6 nM; KOR % Stimulation, [35S]GTPγS (human KOR): 31.4 ± 4.2%
C[C@@H](NC(=O)[C@@H](N)Cc1ccc(O)cc1)C(=O)NCC(=O)N(C)[C@@H](Cc1ccccc1)C(=O)NCCO [DAMGO, [D-Ala^2, N-MePhe^4, Gly-ol]-enkephalin, reference compound]	–	–	–	–	–	–	–	–	–	102	–	–	–	–	–	–	–	–
N#CCCCN1CCC23c4c5ccc(O)c4OC2C(=O)CCC3C1C5 (stereo not drawn) [Compound 1b]	4.25 ± 0.29	72.2 ± 1.2	2.71 ± 0.22	–	MOR antagonist	–	–	–	–	–	–	–	–	–	–	–	–	MOR EC50, [35S]GTPγS (rat MOR): DNS; EC50 (human KOR): 24.3 ± 5 nM; KOR % Stimulation, [35S]GTPγS (human KOR): 89.6 ± 0.9%
O=C(O)C(=O)O.O=C1CCC2[C@H]3Cc4ccc(O)c5c4[C@@]2(CCN3CCc2ccc(Br)cc2)[C@H]1O5 (stereo partly drawn) [Compound 2j, (4R,7aR,12bS)-3-(4-Bromophenethyl)-9-hydroxy-2,3,4,4a,5,6-hexahydro-1H-4,12-methanobenzofuro[3,2-e]-isoquinolin-7(7aH)-one oxalate]	–	–	–	–	–	–	–	–	0.15 nM	103	96	0.97 nM	99	20 nM and 20.1 nM	0.43	4.9	53	EC50 δ/μ ratio in the cAMP assay [2]: 6.5
COc1ccc(CCN2CC[C@]34c5c6ccc(O)c5O[C@H]3C(=O)CCC4C2C6)cc1 (stereo partly drawn) [Compound 2d, (7aR,12bS)-9-Hydroxy-3-(4-methoxyphenethyl)-2,3,4,4a,5,6-hexahydro-1H-4,12-methanobenzofuro[3,2-e]-isoquinolin-7(7aH)-one]	0.67 ± 0.05	5.43 ± 0.47	26.3 ± 1.9	–	MOR antagonist	–	33.6 ± 6.4 nM	49% and 48.9 ± 3.2%	0.13 nM	103	97.5	2.7 nM and 2.71 nM	96.2	7.4 nM and 7.38 nM	2.69	11.2	23	MOR EC50, [35S]GTPγS (rat MOR): DNS; EC50 (human KOR): 5.9 ± 1.7 nM; KOR % Stimulation, [35S]GTPγS (human KOR): 21.8% and 21.8 ± 0.8%
O=C1CCC2C3Cc4ccc(O)c5c4[C@@]2(CCN3CC2Cc3ccccc3C2)[C@H]1O5 (stereo partly drawn) [Compound 1d, (7aR,12bS)-3-((2,3-Dihydro-1H-inden-2-yl)methyl)-9-hydroxy-2,3,4,4a,5,6-hexahydro-1H-4,12-methano-benzofuro[3,2-e]isoquinolin-7(7aH)-one]	40.1 ± 5.9	844 ± 107	–	–	–	–	–	–	18.3 nM	95.2	94.4	596 nM	–	> 10000 nM	2.53	130	1.9	KOR Binding, exploratory binding assay (κ-opioid receptor (KOR)): NT (NT = not tested—inactive (<50% activity at 100 nM concentration in exploratory binding assays (displaced less than half of radioligand))
O=C1CCC2C3Cc4ccc(O)c5c4[C@@]2(CCN3CCc2ccc(C(F)(F)F)cc2)[C@H]1O5 (stereo partly drawn) [Compound 2h, (7aR,12bS)-9-Hydroxy-3-(4-(trifluoromethyl)phenethyl)-2,3,4,4a,5,6-hexahydro-1H-4,12-methanobenzofuro-[3,2-e]isoquinolin-7(7aH)-one]	2.7 ± 0.17	16.4 ± 0.4	–	3.4 ± 1.2	–	72.2 ± 5.5%	36 nM and 35.7 nM	82.3 ± 2.3%	0.21 nM	102	94.3	2.41 nM	95.7	98.2 nM	0.56	10.3	62.4	KOR Binding, exploratory binding assay (κ-opioid receptor (KOR)): NT (NT = not tested—inactive (<50% activity at 100 nM concentration in exploratory binding assays (displaced less than half of radioligand))
O=C1CCC2C3Cc4ccc(O)c5c4C2(CCN3CCc2ccccc2)C1O5 (stereo not drawn) [Compound S11, N-Phenethylnorhydromorphone]	–	–	–	–	–	–	–	–	0.04 nM	102	95.1	1.54 nM	80.6	23 nM and 22.7 nM	0.47	1.71	61.9	EC50 δ/μ ratio in the cAMP assay [2]: 38.5 and 39
O=C1CCC2C3Cc4ccc(O)c5c4C2(CCN3CCc2cccc([N+](=O)[O-])c2)C1O5 [Compound 2b, (7aR,12bS)-9-Hydroxy-3-(3-nitrophenethyl)-2,3,4,4a,5,6-hexahydro-1H-4,12-methanobenzofuro[3,2-e]-0isoquinolin-7(7aH)-one]	5.88 ± 0.38	92.5 ± 7.3	65.4 ± 7.7	–	MOR antagonist	–	–	–	5.2 nM and 5.22 nM	102	95.3	46.7 nM	–	> 10000 nM	3.38	116	6	MOR EC50, [35S]GTPγS (rat MOR): DNS
O=C1CCC2C3Cc4ccc(O)c5c4[C@@]2(CCN3CCc2c(Cl)cccc2Cl)[C@H]1O5 (stereo partly drawn) [Compound 2k, (7aR,12bS)-3-(2,6-Dichlorophenethyl)-9-hydroxy-2,3,4,4a,5,6-hexahydro-1H-4,12-methanobenzofuro[3,2-e]isoquinolin-7(7aH)-one]	–	–	–	–	–	–	–	–	0.37 nM	101	95.8	21.9 nM	74	1880 nM	1.04	13.1	24.6	–
